Assays:
Format in all cases: in vivo
[1] = system: Wheat plants of the "Cubus" cultivar; test: Reduction of shoot growth in winter wheat, greenhouse test
Experimental: Wheat plants of the “Cubus” cultivar were cultivated in pots of diameter 12 cm on a customary growing substrate. The plants were treated at BBCH development stage 11/12 (1-2 leaves unfolded) at a shoot length of 16 cm as a foliar application with a liquid volume of 750 I/ha. Both prohexadione-Ca (“ProCa”) and trinexapac-ethyl (“TriEt”) were used as technical grade active ingredients. To prepare an applicable spray liquor, the adjuvant LI-700 (Loveland Products, Inc., Greeley, Colo., USA) was added in a concentration of 0.1%. The shoot length of the plants was measured at different times after the treatment. The following results were obtained (data in centimeters): […]

[2] = system: Winter wheat of the "Bussard" cultivar; test: Degree of stem lodging in winter wheat ready for harvest, field test; details: crops ready for harvest; for Degree of lodging: % lodged area x intensity (0-100) / 100
Experimental: Winter wheat of the “Bussard” cultivar was cultivated under field conditions. To “provoke” significant lodging, the supply of the nutrient element nitrogen was deliberately selected too high. The remaining growing conditions corresponded to customary practice. The plants were treated with the inventive active ingredient combination at the BBCH 31/32 development stage (1- to 2-node stage) as a foliar application with a liquid volume of 200 I/ha. Prohexadione-Ca (“ProCa”) (50 g/ha) was used as Regalis (BASF) and trinexapac-ethyl (“TriEt”) (75 g/ha) as Moddus (Syngenta). The shoot length of the plants was measured at various times from the treatment until they were ready for harvest. The following results were obtained (data in centimeters):
For crops ready for harvest from the test, the degree of stem lodging was determined. This value is the product of the percentage area in which the wheat plants are no longer upright with the intensity of lodging (0=plants are upright/100=plants lie flat on the ground) divided by 100. The values obtained here likewise lead to the conclusion of a synergistic interaction of the active ingredients involved: […]

[3] = system: Winter wheat of the "Bussard" cultivar; test: Reduction of shoot growth in winter wheat, field test
Experimental: Winter wheat of the “Bussard” cultivar was cultivated under field conditions. To “provoke” significant lodging, the supply of the nutrient element nitrogen was deliberately selected too high. The remaining growing conditions corresponded to customary practice. The plants were treated with the inventive active ingredient combination at the BBCH 31/32 development stage (1- to 2-node stage) as a foliar application with a liquid volume of 200 I/ha. Prohexadione-Ca (“ProCa”) (50 g/ha) was used as Regalis (BASF) and trinexapac-ethyl (“TriEt”) (75 g/ha) as Moddus (Syngenta). The shoot length of the plants was measured at various times from the treatment until they were ready for harvest. The following results were obtained (data in centimeters): […]

[4] = 25 g/ha foliar, 0 days after treatment
[5] = 25 g/ha foliar, 5 days after treatment
[6] = 25 g/ha foliar, 8 days after treatment
[7] = 25 g/ha foliar, 11 days after treatment
[8] = 50 g/ha foliar, 0 days after treatment
[9] = 50 g/ha foliar, 5 days after treatment
[10] = 50 g/ha foliar, 8 days after treatment
[11] = 50 g/ha foliar, 11 days after treatment
[12] = 100 g/ha foliar, 0 days after treatment
[13] = 100 g/ha foliar, 5 days after treatment
[14] = 100 g/ha foliar, 8 days after treatment
[15] = 100 g/ha foliar, 11 days after treatment

SMILES	shoot length [1, 4]	shoot length [1, 5]	shoot length [1, 6]	shoot length [1, 7]	shoot length [1, 8]	shoot length [1, 9]	shoot length [1, 10]	shoot length [1, 11]	shoot length [1, 12]	shoot length [1, 13]	shoot length [1, 14]	shoot length [1, 15]	further results
CCC(=O)C1=C([O-])CC(C(=O)[O-])CC1=O.[Ca+2] (stereo not drawn) [ProCa, prohexadione-Ca]	16 cm	23.0 cm	26.6 cm	31.1 cm	16 cm	23.0 cm	26.3 cm	29.5 cm	16 cm	22.5 cm	24.0 cm	25.8 cm	Improvement over control [%] (degree of lodging) ([2]; 50 g/ha): 11%; Improvement over control absolute (degree of lodging) ([2]; 50 g/ha): 10; Degree of lodging ([2]; 50 g/ha): 81; shoot length ([3]; 50 g/ha (as Regalis) foliar, 0 days after treatment): 43.0 cm; shoot length ([3]; 50 g/ha (as Regalis) foliar, 7 days after treatment): 50.0 cm; shoot length ([3]; 50 g/ha (as Regalis) foliar, 21 days after treatment): 69.3 cm; shoot length ([3]; 50 g/ha (as Regalis) foliar, 30 days after treatment): 89.0 cm; shoot length ([3]; 50 g/ha (as Regalis) foliar, 37 days after treatment): 99.5 cm; shoot length ([3]; 50 g/ha (as Regalis) foliar, 49 days after treatment): 119.8 cm; shoot length ([3]; 50 g/ha (as Regalis) foliar, 63 days after treatment): 120.0 cm
CCOC(=O)C1CC(=O)C(=C(O)C2CC2)C(=O)C1 (stereo not drawn) [TriEt, trinexapac-ethyl]	16 cm	24.6 cm	27.9 cm	32.9 cm	16 cm	24.4 cm	26.5 cm	31.8 cm	16 cm	22.3 cm	23.6 cm	28.5 cm	Degree of lodging ([2]; 75 g/ha): 93; shoot length ([3]; 75 g/ha (as Moddus) foliar, 0 days after treatment): 43.0 cm; shoot length ([3]; 75 g/ha (as Moddus) foliar, 7 days after treatment): 54.5 cm; shoot length ([3]; 75 g/ha (as Moddus) foliar, 21 days after treatment): 76.3 cm; shoot length ([3]; 75 g/ha (as Moddus) foliar, 30 days after treatment): 97.8 cm; shoot length ([3]; 75 g/ha (as Moddus) foliar, 37 days after treatment): 102.8 cm; shoot length ([3]; 75 g/ha (as Moddus) foliar, 49 days after treatment): 119.8 cm; shoot length ([3]; 75 g/ha (as Moddus) foliar, 63 days after treatment): 121.0 cm

Source: patent US9220262B2, “Use of acylcyclohexanedione carboxylic acid or salts thereof in combination with acylcyclohexanedione carboxylic acid esters for improving the development of gramineous plants” (BASF SE, priority 2008, dated 2015)
